According to patent US20250221413A1, “Use and Preparation Method of Sulfoxamyl, and Oxidation System” (priority 2023, published 2025):
≈ marks a conversion by molar mass, not a printed value. Where “and” joins values, the source holds several entries; their conditions need not be identical. Equal entries are not always repeated. Entries after “also recorded” stand apart in the source; their conditions may differ. Where two headings read alike, the source gives them in different places.

Columns and labels:
[1] = Half-life test (hydrolysis in neutral distilled water, HPLC); format: physicochemical
Text: A 98% sulfoxamyl sample was quantitatively dissolved in neutral distilled water, and samples were taken and injected at certain time intervals under HPLC detection. Data were collected according to the area normalization method based on the integrated sulfoxamyl peak area ratio.

Meloidogyne incognita = test: Indoor toxicity test against Meloidogyne incognita second-instar larvae (J2); settings: for LC50 / mortality at 3.1 µg/mL / mortality at 6.25 µg/mL / mortality at 12.5 µg/mL / mortality at 25 µg/mL / mortality at 50 µg/mL / mortality at 100 µg/mL: Meloidogyne incognita
Experimental: Materials: the tested nematodes were collected from three different areas, namely cucumber crops in Dawenkou Town, Tai'an City, Shandong Province, and were all identified as southern root-knot nematodes (Meloidogyne incognita). The diseased roots were washed, cut into small sections of 0.5 cm to 1 cm, rinsed in 1% NaClO solution for about 30 s to 60 s, and rinsed with 200-mesh and 500-mesh sieves to collect nematode eggs for later use. The collected eggs were incubated at 25° C. using the Bayman funnel method and the second-instar larvae were collected 1 time per 24 h to ensure that the second-instar larvae selected each time were fresh and of consistent vitality.
The agent was 98% sulfoxamyl technical, and the comparison agents were 96% oxamyl technical and 87% fosthiazate technical.
The preparation for the agent was in accordance with the provisions for preparation of the liquid medicine in the Agricultural Industry Standard of the People's Republic of China NYT 1833.1-2009 “Guideline for laboratory bioassay of pesticides”, as shown in Table 6.
Methods: according to the experimental plan, the test agent was diluted to different mass concentrations, and 0.5 mL of the agent solution and 0.5 mL of the nematode solution (containing about 100 nematodes) were added into a 24-well cell culture plate. The treatment with each concentration of the agent was repeated 4 times, and auxiliary agent control and blank control were also conducted. […]

SMILES: CNC(=O)O/N=C(/C(=O)N(C)C)S(C)(=O)=O [Sulfoxamyl, N,N-dimethyl-2-[[[(methylamino)carbonyl]oxy]imino]-2-(methylsulfonyl)acetamide]
- time to complete decomposition ([1]; neutral conditions): about 8 h
- Changes in ratio of sulfoxamyl peak area under HPLC ([1]; neutral distilled water, 25° C., Time 0 h): 99.86%
- Changes in ratio of sulfoxamyl peak area under HPLC ([1]; neutral distilled water, 25° C., Time 0.5 h): 73%
- Changes in ratio of sulfoxamyl peak area under HPLC ([1]; neutral distilled water, 25° C., Time 1 h): 63%
- Changes in ratio of sulfoxamyl peak area under HPLC ([1]; neutral distilled water, 25° C., Time 2 h): 48%
- Changes in ratio of sulfoxamyl peak area under HPLC ([1]; neutral distilled water, 25° C., Time 3 h): 32%
- Changes in ratio of sulfoxamyl peak area under HPLC ([1]; neutral distilled water, 25° C., Time 4 h): 20%
- Changes in ratio of sulfoxamyl peak area under HPLC ([1]; neutral distilled water, 25° C., Time 5 h): 11%
- Changes in ratio of sulfoxamyl peak area under HPLC ([1]; neutral distilled water, 25° C., Time 6 h): 5%
- Changes in ratio of sulfoxamyl peak area under HPLC ([1]; neutral distilled water, 25° C., Time 7 h): 4%
- Changes in ratio of sulfoxamyl peak area under HPLC ([1]; neutral distilled water, 25° C., Time 8 h): 3%
- half-life ([1]; neutral distilled water, neutral aqueous solution, 25° C.): 2 h
- Corrected mortality (Meloidogyne incognita; 3.1 mg/L, 24 h): 16.24% and 26.66% and 16.93%
- Mortality (Meloidogyne incognita; 3.1 mg/L, 24 h): 17.27% and 27.56% and 17.95%
- Corrected mortality (Meloidogyne incognita; 3.1 mg/L, 48 h): 26.21% and 30.50% and 18.49%
- Death count (Meloidogyne incognita; 3.1 mg/L, 48 h): 21 and 30 and 40 and 23
- Mortality (Meloidogyne incognita; 3.1 mg/L, 48 h): 27.27% and 31.50% and 19.66%
- Corrected mortality (Meloidogyne incognita; 3.1 mg/L, 72 h): 36.09% and 39.84% and 31.21%
- Death count (Meloidogyne incognita; 3.1 mg/L, 72 h): 39 and 41 and 52 and 38
- Mortality (Meloidogyne incognita; 3.1 mg/L, 72 h): 37.27% and 40.94% and 32.48%
- Corrected mortality (Meloidogyne incognita; 6.25 mg/L, 24 h): 22.19% and 15.49% and 28.36%
- Death count (Meloidogyne incognita; 6.25 mg/L, 24 h): 19 and 25 and 20 and 31
- Mortality (Meloidogyne incognita; 6.25 mg/L, 24 h): 23.15% and 16.53% and 29.25%
- Corrected mortality (Meloidogyne incognita; 6.25 mg/L, 48 h): 30.48% and 22.86% and 33.96%
- Death count (Meloidogyne incognita; 6.25 mg/L, 48 h): 36 and 34 and 29 and 37
- Mortality (Meloidogyne incognita; 6.25 mg/L, 48 h): 31.48% and 23.97% and 34.91%
- Corrected mortality (Meloidogyne incognita; 6.25 mg/L, 72 h): 32.08% and 27.59% and 38.49%
- Death count (Meloidogyne incognita; 6.25 mg/L, 72 h): 41 and 36 and 35 and 42
- Mortality (Meloidogyne incognita; 6.25 mg/L, 72 h): 33.33% and 28.93% and 39.62%
- Corrected mortality (Meloidogyne incognita; 12.5 mg/L, 24 h): 43.94% and 48.97% and 49.86%
- Death count (Meloidogyne incognita; 12.5 mg/L, 24 h): 56 and 54 and 62 and 53
- Mortality (Meloidogyne incognita; 12.5 mg/L, 24 h): 44.63% and 49.60% and 50.48%
- Corrected mortality (Meloidogyne incognita; 12.5 mg/L, 48 h): 56.40% and 56.17% and 57.49%
- Death count (Meloidogyne incognita; 12.5 mg/L, 48 h): 67 and 69 and 71 and 61
- Mortality (Meloidogyne incognita; 12.5 mg/L, 48 h): 57.02% and 56.80% and 58.10%
- Corrected mortality (Meloidogyne incognita; 12.5 mg/L, 72 h): 61.27% and 67.40% and 67.01%
- Death count (Meloidogyne incognita; 12.5 mg/L, 72 h): 71 and 75 and 85
- Mortality (Meloidogyne incognita; 12.5 mg/L, 72 h): 61.98% and 68.00% and 67.62%
- Corrected mortality (Meloidogyne incognita; 25 mg/L, 24 h): 58.55% and 63.70% and 68.85%
- Death count (Meloidogyne incognita; 25 mg/L, 24 h): 78 and 75 and 68 and 90
- Mortality (Meloidogyne incognita; 25 mg/L, 24 h): 59.06% and 64.15% and 69.23%
- Corrected mortality (Meloidogyne incognita; 25 mg/L, 48 h): 63.25% and 67.46% and 68.78%
- Death count (Meloidogyne incognita; 25 mg/L, 48 h): 78 and 81 and 72 and 90
- Mortality (Meloidogyne incognita; 25 mg/L, 48 h): 63.78% and 67.92% and 69.23%
- Corrected mortality (Meloidogyne incognita; 25 mg/L, 72 h): 74.33% and 84.62% and 68.65%
- Death count (Meloidogyne incognita; 25 mg/L, 72 h): 78 and 95 and 90
- Mortality (Meloidogyne incognita; 25 mg/L, 72 h): 74.80% and 84.91% and 69.23%
- Corrected mortality (Meloidogyne incognita; 50 mg/L, 24 h): 82.02%
- Death count (Meloidogyne incognita; 50 mg/L, 24 h): 101 and 88 and 92
- Mortality (Meloidogyne incognita; 50 mg/L, 24 h): 82.24%
- Death count (Meloidogyne incognita; 50 mg/L, 48 h): 108 and 95 and 111 and 98
- Corrected mortality (Meloidogyne incognita; 50 mg/L, 72 h): 92.38%
- Death count (Meloidogyne incognita; 50 mg/L, 72 h): 115 and 99 and 120 and 101
- Mortality (Meloidogyne incognita; 50 mg/L, 72 h): 92.52%
- Death count (Meloidogyne incognita; 100 mg/L, 24 h): 105 and 102 and 120 and 107
- Death count (Meloidogyne incognita; 100 mg/L, 48 h): 108 and 102 and 121
- Death count (Meloidogyne incognita; 100 mg/L, 72 h): 109 and 102 and 121 and 108
- LC90 (Meloidogyne incognita; 24 h): 52.89 µg/mL (≈ 210 µM)
- LC90 (Meloidogyne incognita; 48 h): 56.41 µg/mL (≈ 225 µM)
- LC90 (Meloidogyne incognita; 72 h): 36.84 µg/mL (≈ 147 µM)
- LC50 (Meloidogyne incognita; 24 h): 12.5 µg/mL (≈ 49.8 µM)
- mortality at 3.1 µg/mL (Meloidogyne incognita; 24 h, 3.1 mg/L): 14.4%
- mortality at 6.25 µg/mL (Meloidogyne incognita; 24 h, 6.25 mg/L): 16.4%
- mortality at 12.5 µg/mL (Meloidogyne incognita; 24 h, 12.5 mg/L): 51.4%
- mortality at 25 µg/mL (Meloidogyne incognita; 24 h, 25 mg/L): 66.1%
- mortality at 50 µg/mL (Meloidogyne incognita; 24 h, 50 mg/L): 86.3%
- mortality at 100 µg/mL (Meloidogyne incognita; 24 h, 100 mg/L): 96.3%
- mortality at 3.1 µg/mL (Meloidogyne incognita; 24 h, read-out: Corrected mortality, 3.1 mg/L, 24 h): 13.4%
- mortality at 6.25 µg/mL (Meloidogyne incognita; 24 h, read-out: Corrected mortality, 6.25 mg/L, 24 h): 15.3%
- mortality at 12.5 µg/mL (Meloidogyne incognita; 24 h, read-out: Corrected mortality, 12.5 mg/L, 24 h): 50.8%
- mortality at 25 µg/mL (Meloidogyne incognita; 24 h, read-out: Corrected mortality, 25 mg/L, 24 h): 65.7%
- mortality at 50 µg/mL (Meloidogyne incognita; 24 h, read-out: Corrected mortality, 50 mg/L, 24 h): 86.2%
- mortality at 100 µg/mL (Meloidogyne incognita; 24 h, read-out: Corrected mortality, 100 mg/L, 24 h): 96.3%
- LC50 (Meloidogyne incognita; 48 h): 10.2 µg/mL (≈ 40.7 µM)
- mortality at 3.1 µg/mL (Meloidogyne incognita; 48 h, 3.1 mg/L): 20.2%
- mortality at 6.25 µg/mL (Meloidogyne incognita; 48 h, 6.25 mg/L): 31%
- mortality at 12.5 µg/mL (Meloidogyne incognita; 48 h, 12.5 mg/L): 61.5%
- mortality at 25 µg/mL (Meloidogyne incognita; 48 h, 25 mg/L): 66.1%
- mortality at 50 µg/mL (Meloidogyne incognita; 48 h, 50 mg/L): 92.3%
- mortality at 100 µg/mL (Meloidogyne incognita; 48 h, 100 mg/L): 99.1%
- mortality at 3.1 µg/mL (Meloidogyne incognita; 48 h, read-out: Corrected mortality, 3.1 mg/L, 48 h): 19%
- mortality at 6.25 µg/mL (Meloidogyne incognita; 48 h, read-out: Corrected mortality, 6.25 mg/L, 48 h): 30%
- mortality at 12.5 µg/mL (Meloidogyne incognita; 48 h, read-out: Corrected mortality, 12.5 mg/L, 48 h): 60.9%
- mortality at 25 µg/mL (Meloidogyne incognita; 48 h, read-out: Corrected mortality, 25 mg/L, 48 h): 65.6%
- mortality at 50 µg/mL (Meloidogyne incognita; 48 h, read-out: Corrected mortality, 50 mg/L, 48 h): 92.2%
- mortality at 100 µg/mL (Meloidogyne incognita; 48 h, read-out: Corrected mortality, 100 mg/L, 48 h): 99.1%
- LC50 (Meloidogyne incognita; 72 h): 7.41 µg/mL (≈ 29.5 µM)
- mortality at 3.1 µg/mL (Meloidogyne incognita; 72 h, 3.1 mg/L): 37.5%
- mortality at 6.25 µg/mL (Meloidogyne incognita; 72 h, 6.25 mg/L): 35.3%
- mortality at 12.5 µg/mL (Meloidogyne incognita; 72 h, 12.5 mg/L): 65.1%
- mortality at 25 µg/mL (Meloidogyne incognita; 72 h, 25 mg/L): 66.1%
- mortality at 50 µg/mL (Meloidogyne incognita; 72 h, 50 mg/L): 98.3%
- mortality at 100 µg/mL (Meloidogyne incognita; 72 h, 100 mg/L): 100%
- mortality at 3.1 µg/mL (Meloidogyne incognita; 72 h, read-out: Corrected mortality, 3.1 mg/L, 72 h): 36.3%
- mortality at 6.25 µg/mL (Meloidogyne incognita; 72 h, read-out: Corrected mortality, 6.25 mg/L, 72 h): 34.1%
- mortality at 12.5 µg/mL (Meloidogyne incognita; 72 h, read-out: Corrected mortality, 12.5 mg/L, 72 h): 64.5%
- mortality at 25 µg/mL (Meloidogyne incognita; 72 h, read-out: Corrected mortality, 25 mg/L, 72 h): 65.5%
- mortality at 50 µg/mL (Meloidogyne incognita; 72 h, read-out: Corrected mortality, 50 mg/L, 72 h): 98.3%
- mortality at 100 µg/mL (Meloidogyne incognita; 72 h, read-out: Corrected mortality, 100 mg/L, 72 h): 100%
- killing (indoor nematicidal) activity against Meloidogyne incognita J2, in words (Meloidogyne incognita; compared with oxamyl and fosthiazate): high killing activity; also recorded: higher than that of oxamyl; also recorded: higher than that of fosthiazate
